Experimental data: patent US20020168329A1, “Skin composition” (Unilever Home & Personal Care USA, Division of Conopco, Inc., priority 2001, published 2002)

Tested on: Volunteers with oily skin type
Test: Oil (sebum) secretion on the skin measured with Sebumeter SM 810 PC after one week of twice-daily cream use
Format: in vivo, human
Details: after 2 hours; conclusion from Table 1
Method: Method of Testing Oil Secretion:
The above mentioned formulations (Examples 1 to 4) were tested for their efficacy in reducing the oil secretion on the skin using a sebumeter by the following protocol.
Volunteers with oily skin type were recruited. The initial sebum was measured with Sebumeter SM 810 PC on the cheeks, and the selection was made such that they had approximately similar sebum profile. The panellists were asked to use 0.5 g of the assigned cream on their face twice a day, for one week. The sebum profile was measured on the 8th day. The panellists washed their face and the sebum secretion on the skin surface after 2 hours was measured using the Sebumeter SM 810 PC on the cheeks.
Sebumeter is a device for measuring sebum content on skin surface. A piece of plastic film (wound in the form of a cassette) is kept on the skin for 30 sec. By this means the […] measuring area of the plastic film becomes transparent due to absorbed sebum. […] Sebumeter SM 810 PC immediately indicates sebum content between 50 & 300 μgm/cm^2 % sebum reduction is calculated.
The protocol to measure the % reduction in sebum secretion is as per the procedure described above. The samples of creams described in Examples 4, 5 and 6 were tested for their efficacy in reducing the sebum secretion and the data are presented in Table 3.

| SMILES | effect in reducing oil secretion on the skin (in words) |
| --- | --- |
| NC(=O)c1cccnc1 [niacinamide] | significant effect in reducing oil secretion on the skin |
| CCCCCCCCCCCCCOC(=O)c1ccccc1O [tridecyl salicylate] | significant effect in reducing oil secretion on the skin |
